For this assay, the system named is CD2F1 mice, L1210 leukemia ip, survival T/C. Nature of the assay: NCI In Vivo Anticancer Drug Screen. Data for tumor model L1210 Leukemia (intraperitoneal) in CD2F1 (CDF1) mice. To be noted: higher = longer survival. Put shortly:
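Activity against a transplanted murine tumor was judged by comparing the compound group with a vehicle group. The outcome in the treated animals was divided by that in the controls.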

Where [1] appears, read: endpoint: mean survival time, dose: 12.5 mg/kg/injection, schedule: Q04DX003 (ip), vehicle: saline.
The mark [2] stands for this setting: endpoint: mean survival time, dose: 100.0 mg/kg/injection, schedule: Q04DX002 (ip), vehicle: saline with Tween-80.
Setting [3] is: endpoint: mean survival time, dose: 200.0 mg/kg/injection, schedule: Q04DX002 (ip), vehicle: saline with Tween-80.
Where [4] appears, read: endpoint: mean survival time, dose: 100.0 mg/kg/injection, schedule: Q04DX002 (ip), vehicle: saline.
Setting [5] is: endpoint: mean survival time, dose: 200.0 mg/kg/injection, schedule: Q04DX002 (ip), vehicle: saline.
The mark [6] stands for this setting: endpoint: mean survival time, dose: 100.0 mg/kg/injection, schedule: Q04DX003 (ip), vehicle: saline with Tween-80.
The mark [7] stands for this setting: endpoint: mean survival time, dose: 200.0 mg/kg/injection, schedule: Q04DX003 (ip), vehicle: saline with Tween-80.

Several values for one entry are separate records, joined by “and”; a condition that tells them apart may be missing. Equal entries are not always repeated. Toxic doses and inconclusive results are not listed.

With `CC[C@]12CN3CCc4c([nH]c5ccccc45)[C@@](C(=O)OC)(c4cc5c(cc4OC)N(C)[C@H]4[C@@](O)(C(=O)OC)[C@H](OC(C)=O)[C@]6(CC)C=CCN7CC[C@]54[C@@H]76)CC(C3)[C@H]1O2` (some centres undefined), the T/C reads like this: (endpoint: mean survival time, dose: 1.5 mg/kg/injection, schedule: Q01DX009 (ip), vehicle: Klucel (hydroxypropylcellulose) (HPC)) 106 % of control; (endpoint: mean survival time, dose: 3.0 mg/kg/injection, schedule: Q01DX009 (ip), vehicle: Klucel (hydroxypropylcellulose) (HPC)) 108 % of control; (endpoint: mean survival time, dose: 6.0 mg/kg/injection, schedule: Q01DX009 (ip), vehicle: Klucel (hydroxypropylcellulose) (HPC)) 110 % of control; (endpoint: mean survival time, dose: 6.25 mg/kg/injection, schedule: Q04DX003 (ip), vehicle: saline) 111 % of control; (endpoint: mean survival time, dose: 12.0 mg/kg/injection, schedule: Q01DX009 (ip), vehicle: Klucel (hydroxypropylcellulose) (HPC)) 112 % of control; under setting [1], 120 % of control. The T/C was 100 % of control (endpoint: median survival time, dose: 1.0 mg/kg/injection, schedule: Q03HX008 (ip), vehicle: saline); 100 % of control (endpoint: median survival time, dose: 1.0 mg/kg/injection, schedule: Q03HX016 (ip), vehicle: saline); 100 % of control (endpoint: median survival time, dose: 1.0 mg/kg/injection, schedule: Q03HX024 (ip), vehicle: saline); 110 % of control (endpoint: median survival time, dose: 2.0 mg/kg/injection, schedule: Q03HX008 (ip), vehicle: saline); 120 % of control (endpoint: median survival time, dose: 2.0 mg/kg/injection, schedule: Q03HX016 (ip), vehicle: saline); 120 % of control (endpoint: median survival time, dose: 2.0 mg/kg/injection, schedule: Q03HX024 (ip), vehicle: saline). Also, the T/C runs as follows: (endpoint: median survival time, dose: 4.0 mg/kg/injection, schedule: Q01DX009 (ip), vehicle: saline) 110 % of control; (endpoint: median survival time, dose: 4.0 mg/kg/injection, schedule: Q04DX003 (ip), vehicle: saline) 100 % of control; (endpoint: median survival time, dose: 8.0 mg/kg/injection, schedule: Q01DX001 (ip), vehicle: saline) 100 % of control; (endpoint: median survival time, dose: 8.0 mg/kg/injection, schedule: Q04DX003 (ip), vehicle: saline) 105 % of control; (endpoint: median survival time, dose: 8.0 mg/kg/injection, schedule: Q08DX002 (ip), vehicle: saline) 115 % of control; (endpoint: median survival time, dose: 16.0 mg/kg/injection, schedule: Q01DX001 (ip), vehicle: saline) 110 % of control. Also, the T/C (endpoint: median survival time, dose: 16.0 mg/kg/injection, schedule: Q01DX009 (ip), vehicle: saline) is 100 % of control; the T/C (endpoint: median survival time, dose: 16.0 mg/kg/injection, schedule: Q08DX002 (ip), vehicle: saline) is 110 % of control; the T/C (endpoint: median survival time, dose: 32.0 mg/kg/injection, schedule: Q01DX001 (ip), vehicle: saline) was 110 % of control.
`O=CNc1ccccc1OCc1ccccc1`: the T/C was 100 % of control (endpoint: mean survival time, dose: 100.0 mg/kg/injection, schedule: Q01DX001 (ip), vehicle: saline); 97 % of control (endpoint: mean survival time, dose: 200.0 mg/kg/injection, schedule: Q01DX001 (ip), vehicle: saline); 103 % of control (endpoint: mean survival time, dose: 400.0 mg/kg/injection, schedule: Q01DX001 (ip), vehicle: saline).
`CCS(=O)(=O)Nc1ccc(Nc2c3ccccc3nc3ccccc23)c(OC)c1`: under “endpoint: mean survival time, dose: 5.0 mg/kg/injection, schedule: Q01DX009 (ip), vehicle: saline”, the T/C was 156 % of control.
As for `CCOC(=O)Cc1ccncc1CC`, the T/C runs as follows: (endpoint: mean survival time, dose: 100.0 mg/kg/injection, schedule: Q01DX001 (ip), vehicle: saline with Tween-80) 94 % of control; (endpoint: mean survival time, dose: 100.0 mg/kg/injection, schedule: Q01DX009 (ip), vehicle: saline with Tween-80) 97 % of control; (endpoint: mean survival time, dose: 200.0 mg/kg/injection, schedule: Q01DX001 (ip), vehicle: saline with Tween-80) 91 % of control; (endpoint: mean survival time, dose: 200.0 mg/kg/injection, schedule: Q01DX009 (ip), vehicle: saline with Tween-80) 104 % of control; (endpoint: mean survival time, dose: 400.0 mg/kg/injection, schedule: Q01DX001 (ip), vehicle: saline with Tween-80) 100 % of control; (endpoint: mean survival time, dose: 400.0 mg/kg/injection, schedule: Q01DX009 (ip), vehicle: saline with Tween-80) 101 % of control.
As to `CCCCCCCCCCCCNC(=O)c1cc[n+](C)cc1`, the T/C runs as follows: (endpoint: mean survival time, dose: 12.5 mg/kg/injection, schedule: Q01DX009 (ip), vehicle: saline) 95 % of control; under setting [1], 98 % of control; (endpoint: mean survival time, dose: 25.0 mg/kg/injection, schedule: Q04DX003 (ip), vehicle: saline) 95 % of control; (endpoint: mean survival time, dose: 50.0 mg/kg/injection, schedule: Q04DX003 (ip), vehicle: saline) 94 % of control.
Turning to `CCCCNC(=S)N/N=C/c1ccccn1`, the T/C is 98 % of control under setting [2] and 109 % of control under setting [3].
In the case of `CC1CCOC1=O` (centres undefined), the T/C is, setting by setting: (endpoint: mean survival time, dose: 50.0 mg/kg/injection, schedule: Q04DX002 (ip), vehicle: saline) 98 % of control; under setting [4], 98 % of control; under setting [5], 102 % of control.
For the compound `CCN1C2CCC1CC(O)C2` (centres undefined), the T/C by setting is: under setting [4], 94 % of control; under setting [5], 94 % of control; (endpoint: mean survival time, dose: 400.0 mg/kg/injection, schedule: Q04DX002 (ip), vehicle: saline) 105 % of control.
As for `NCC1C2CCC(C2)C1CCCNCCCC1C2CCC(C2)C1CN` (centres undefined), the T/C (endpoint: mean survival time, dose: 6.25 mg/kg/injection, schedule: Q04DX002 (ip), vehicle: saline with Tween-80) is 98 % of control; the T/C (endpoint: mean survival time, dose: 12.5 mg/kg/injection, schedule: Q04DX002 (ip), vehicle: saline with Tween-80) was 107 % of control; the T/C (endpoint: mean survival time, dose: 25.0 mg/kg/injection, schedule: Q04DX002 (ip), vehicle: saline with Tween-80) was 114 % of control.
With `C1=NOC2c3ccc4ccccc4c3CCC12` (centres undefined), the T/C was 100 % of control (endpoint: mean survival time, dose: 100.0 mg/kg/injection, schedule: Q04DX003 (ip), vehicle: Klucel (hydroxypropylcellulose) (HPC)); 101 % of control (endpoint: mean survival time, dose: 200.0 mg/kg/injection, schedule: Q04DX003 (ip), vehicle: Klucel (hydroxypropylcellulose) (HPC)); 107 % of control (endpoint: mean survival time, dose: 400.0 mg/kg/injection, schedule: Q04DX003 (ip), vehicle: Klucel (hydroxypropylcellulose) (HPC)).
As for `Cc1cc(O)c2c(c1O)C(=O)C13C(=C2O)C(=O)C2C(O)C1C1C(O)C3C(=O)C3=C(O)c4c(O)cc(C)c(O)c4C(=O)C321` (centres undefined), the T/C by setting is: (endpoint: mean survival time, dose: 6.25 mg/kg/injection, schedule: Q04DX003 (ip), vehicle: saline with Tween-80) 102 % of control; (endpoint: mean survival time, dose: 12.5 mg/kg/injection, schedule: Q04DX003 (ip), vehicle: saline with Tween-80) 107 % of control; (endpoint: mean survival time, dose: 25.0 mg/kg/injection, schedule: Q04DX003 (ip), vehicle: saline with Tween-80) 93 % of control; (endpoint: median survival time, dose: 0.78 mg/kg/injection, schedule: Q01DX009 (ip), vehicle: saline with Tween-80) 111 % of control; (endpoint: median survival time, dose: 1.56 mg/kg/injection, schedule: Q01DX009 (ip), vehicle: saline with Tween-80) 109 % of control; (endpoint: median survival time, dose: 3.12 mg/kg/injection, schedule: Q01DX009 (ip), vehicle: saline with Tween-80) 97 % of control and 102 % of control.
With `CCOC(=O)N/N=C/c1cc(Cl)ccc1O`, the T/C reads like this: (endpoint: mean survival time, dose: 50.0 mg/kg/injection, schedule: Q04DX003 (ip), vehicle: saline with Tween-80) 98 % of control; under setting [6], 93 % of control; under setting [7], 91 % of control.
As for `CC#CC(=O)O`, under setting [4], the T/C is 98 % of control.
As to `Nc1nc(N)c2nc(COc3ccc(C(=O)NC(CCC(=O)O)C(=O)O)cc3)ccc2n1` (centres undefined), the T/C was 103 % of control and 106 % of control (endpoint: mean survival time, dose: 15.63 micrograms/kg/injection, schedule: Q01DX005 (ip), vehicle: sodium bicarbonate); 120 % of control and 107 % of control (endpoint: mean survival time, dose: 31.25 micrograms/kg/injection, schedule: Q01DX005 (ip), vehicle: sodium bicarbonate); 113 % of control (endpoint: mean survival time, dose: 62.5 micrograms/kg/injection, schedule: Q01DX005 (ip), vehicle: sodium bicarbonate).
As to `COc1cc(C2=N/C(=C\c3cc(Br)ccc3O)C(=O)O2)cc(OC)c1OC`, the T/C is 88 % of control (endpoint: mean survival time, dose: 50.0 mg/kg/injection, schedule: Q04DX002 (ip), vehicle: saline with Tween-80); 95 % of control and 100 % of control under setting [2]; 96 % of control under setting [3]; 88 % of control and 100 % of control (endpoint: mean survival time, dose: 400.0 mg/kg/injection, schedule: Q04DX002 (ip), vehicle: saline with Tween-80).
Regarding `Cc1ccc2c(C)cc(=O)[nH]c2c1`, the T/C under setting [6] was 95 % of control; the T/C under setting [7] is 95 % of control; the T/C (endpoint: mean survival time, dose: 400.0 mg/kg/injection, schedule: Q04DX003 (ip), vehicle: saline with Tween-80) was 101 % of control.

The values above are taken from PubChem BioAssay AID256 (DTP/NCI, 2004).
